Consider 24 molecules from ChEMBL document CHEMBL1955805, “New aromatase inhibitors from the 3-pyridyl arylether and 1-aryl pyrrolo[2,3-c]pyridine series” (Bioorg Med Chem Lett, 2012).

The target in one data set is T1, aromatase (CYP19) (Homo sapiens, UniProt P11511).
T1 sequence (P11511 whole entry): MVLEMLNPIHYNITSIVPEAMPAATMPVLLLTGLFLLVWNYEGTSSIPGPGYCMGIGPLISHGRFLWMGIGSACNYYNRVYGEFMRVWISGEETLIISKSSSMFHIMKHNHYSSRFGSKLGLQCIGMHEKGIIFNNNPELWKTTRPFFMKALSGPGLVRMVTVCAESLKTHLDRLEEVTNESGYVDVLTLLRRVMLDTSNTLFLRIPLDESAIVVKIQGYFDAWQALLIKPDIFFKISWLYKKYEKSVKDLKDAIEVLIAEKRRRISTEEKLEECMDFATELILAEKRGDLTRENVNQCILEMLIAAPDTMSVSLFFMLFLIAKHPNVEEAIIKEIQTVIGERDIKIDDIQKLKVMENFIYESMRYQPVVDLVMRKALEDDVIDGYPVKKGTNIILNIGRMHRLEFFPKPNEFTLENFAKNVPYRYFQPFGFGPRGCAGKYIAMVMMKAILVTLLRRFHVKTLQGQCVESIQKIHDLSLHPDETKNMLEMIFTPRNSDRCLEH
The data set is described as follows: Inhibition of human aromatase coexpressed with P450 reductase at 1 uM by fluorimetry. The conditions noted are these: recombinant human aromatase coexpressed with P450 reductase.

A further data set addresses T2, Aromatase (Homo sapiens, UniProt P11511).
T2 sequence (P11511 whole entry): T1 sequence (P11511 whole entry)
The data set is described as follows: Inhibition of human aromatase coexpressed with P450 reductase by fluorimetry.

The species named for data set [1] is Homo sapiens. The data set is described as follows: Selectivity ratio of IC50 for CYP2D6 to IC50 for human aromatase.
The species named for data set [2] is Homo sapiens. The data set is described as follows: Selectivity ratio of IC50 for CYP2C9 to IC50 for human aromatase.
For data set [3], the species on record is Homo sapiens. The data set is described as follows: Selectivity ratio of IC50 for CYP3A4 to IC50 for human aromatase.

SMILES strings stand for the structures.

Regarding `N#Cc1ccc(Oc2cccnc2)cc1Oc1ccccc1`, on aromatase (CYP19), the inhibition at 1 µM is 78%.
On the same count and under the same terms, then `N#Cc1ccc(Oc2cccnn2)cc1`, with 1%.
Same read-out and setting: then `N#Cc1ccc(Oc2cccnc2)cc1NC1CCCCC1`, with 33%.
Same read-out and setting: then `N#Cc1ccc(Oc2cccnc2)cc1Oc1cccc(Cl)c1`, with 25%.
`COc1ccc(Oc2cc(Oc3cccnc3)ccc2C#N)cc1`: the inhibition at 1 µM at aromatase (CYP19) stood at 84%.
`Clc1ccc(-n2ccc3ccncc32)cc1` showed an IC50 against Aromatase of 523 nM. Also, the inhibition at 1 µM at aromatase (CYP19) was found to be 85%.
Taken in the same sequence, the figures for `N#Cc1ccc(Oc2cccnc2)c(Oc2cccc(Cl)c2)c1` were 229 nM and 89%.
For the molecule `Cc1cc(-n2ccc3ccncc32)ccc1C#N`, the inhibition at 1 µM on aromatase (CYP19) was more than 99%.
Still for that read-out and setting: then `N#Cc1ccc(Oc2ccncc2)cc1`, with 53%; and `CN1CCN(c2cc(Oc3cccnc3)ccc2C#N)CC1`, with 8%.
Take `N#Cc1ccc(-n2ccc3ccncc32)cc1`: the Ratio IC50 in the data set filed under Homo sapiens [1], in the data set filed under Homo sapiens [2] and in the data set listed under Homo sapiens [3] was more than 200 each time. For the same molecule, inhibition at Aromatase was half-maximal at 93 nM (IC50). At aromatase (CYP19), the inhibition at 1 µM was 94%.
Consider `Brc1ccc(-n2ccc3ccncc32)cc1`, for which the inhibition at 1 µM on aromatase (CYP19) amounted to 56%.
Molecule `N#Cc1ccc(Oc2cccnc2)cc1NCc1ccccc1` displayed an IC50 on Aromatase of 986 nM. Further, at aromatase (CYP19), the inhibition at 1 µM is 58%.
For `N#Cc1ccc(Oc2cccnc2)cc1`, in that order: 289 nM and 70%.
For `N#Cc1ccc(Oc2cccnc2)cc1C#N`, in that order: 5030 nM and 27%.
`N#Cc1ccc(Oc2cccnc2)cc1Oc1cccnc1` registered a concentration for half-maximal inhibition (IC50) against Aromatase of 304 nM. For the same molecule, the inhibition at 1 µM at aromatase (CYP19) was determined as 81%.
As for `NC(=O)c1ccc(-n2ccc3ccncc32)cc1`, the inhibition at 1 µM at aromatase (CYP19) is 60%.
`Cc1cc(-n2ccc3ccncc32)ccc1Cl` showed an IC50 against Aromatase of 59 nM. In addition, on aromatase (CYP19), the inhibition at 1 µM worked out at 96%.
On to `N#Cc1ccc(Oc2cccnc2)cc1F`, for which the inhibition at 1 µM on aromatase (CYP19) amounted to 15%.
On the same count and under the same terms, then `N#Cc1ccc(Oc2cccnc2)c(Oc2cccnc2)c1`, with 82%.
In the case of `N#Cc1ccc(-n2ccc3ccncc32)cc1Oc1ccccc1`, at Aromatase, the concentration for half-maximal inhibition (IC50) amounted to 114 nM. The inhibition at 1 µM at aromatase (CYP19) is 97%.
For the molecule `Ic1ccc(-n2ccc3ccncc32)cc1`, the inhibition at 1 µM on aromatase (CYP19) stood at 26%.
On the same count and under the same terms, then `N#Cc1ccc(Oc2cccnc2)c(F)c1`, with 52%; and `N#Cc1ccc(Cn2cncn2)cc1`, with 88%.

One may read the inhibition as the change of the read-out against control, counted positive when it falls. As a reminder, the IC50 is the concentration that gives 50% inhibition.
